# From patent US20230183215A1, “Notch Inhibitors and Uses Thereof” (StemSynergy Therapeutics, Inc., priority 2020, published 2023)
# Structures can show the parent of a compound that is named as a salt.
# Biological target: T1, Notch1 (Homo sapiens, UniProt P46531)
# T1 construct: pLV[Tet]-Puro-TRE3G>Notch1-ICD; expressed in transfected cells; host or cells: 293A cells
# Assay: Notch1 Reporter Assay (CSL-responsive luciferase, doxycycline-induced Notch-ICD in 293A cells)
# Format: cell-based
# Conditions: 25 ng/mL Dox, 24 h, luciferase normalized to cell viability
# Description: 293A cells expressing 1) pCMV-Tet-On 3G, 2) pLV[Tet]-Puro-TRE3G>Notch1-ICD, 3) pLV[Tet]-Puro-TRE3G>Notch2-ICD, 4) pLV[Tet]-Puro-TRE3G>Notch3-ICD, and 5) pCSL-RElement-Luc were used. When Doxycycline is added, the Tet-ON gene activates expression of hNotch1ICD, which together with endogenous NTC components binds to CSL responsive elements (pCSL-RElement-Luc) and expresses luciferase. 1×10^4 cells are plated in 100 μL (96-well format). 24 h later, compounds (10 mM stock in DMSO) are diluted in DMSO to 200×, then added (5 ul into 1 mL) to cell culture media containing 50 ng/mL Dox. This is then added 1:1 to cells. Final DMSO=0.25%, Dox=25 ng/mL. After 24 h, media is discarded, and cells are lysed in passive lysis buffer (Promega). Cells are rocked at room temperature for 15 min and then lysate is divided for luciferase assay (Luciferase Assay System, Promega) and cell viability (CellTiter Glo 2.0, Promega). Raw luciferase is normalized to cell viability, and then scaled to DMSO wells. Results are analyzed and IC50's are determined in GraphPad by nonlinear regression curve fitting (4 parameter) of dose response curves.
# T1 sequence (P46531 1754-2555 limits assumed): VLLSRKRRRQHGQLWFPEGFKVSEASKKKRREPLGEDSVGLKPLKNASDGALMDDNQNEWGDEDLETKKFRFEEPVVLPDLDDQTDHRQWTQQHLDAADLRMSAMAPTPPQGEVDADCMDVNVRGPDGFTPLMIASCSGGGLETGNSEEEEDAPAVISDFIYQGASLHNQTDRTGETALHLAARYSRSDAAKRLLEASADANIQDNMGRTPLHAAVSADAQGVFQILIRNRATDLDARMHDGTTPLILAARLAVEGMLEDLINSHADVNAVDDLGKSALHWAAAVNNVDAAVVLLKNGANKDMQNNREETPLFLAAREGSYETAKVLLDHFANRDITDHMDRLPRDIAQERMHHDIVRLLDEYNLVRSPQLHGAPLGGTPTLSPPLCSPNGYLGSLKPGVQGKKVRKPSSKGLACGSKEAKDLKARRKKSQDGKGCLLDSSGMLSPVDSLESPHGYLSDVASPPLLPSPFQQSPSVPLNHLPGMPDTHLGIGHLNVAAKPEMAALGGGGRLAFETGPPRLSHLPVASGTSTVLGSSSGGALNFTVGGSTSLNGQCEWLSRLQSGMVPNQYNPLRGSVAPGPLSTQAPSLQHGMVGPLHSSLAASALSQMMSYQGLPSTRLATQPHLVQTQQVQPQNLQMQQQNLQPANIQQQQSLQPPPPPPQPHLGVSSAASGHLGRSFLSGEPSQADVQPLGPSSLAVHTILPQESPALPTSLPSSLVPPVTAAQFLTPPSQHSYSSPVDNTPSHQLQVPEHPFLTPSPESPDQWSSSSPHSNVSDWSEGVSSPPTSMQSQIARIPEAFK
row,Compound,IC50 [µM]
1,"Cn1c(=O)n(CC(=O)Nc2ccc(F)cc2)c2cc(C(F)(F)F)cc(-c3ccc(OCc4nnc[nH]4)c(F)c3)c21 [SSTN-597, 2-(4-(4-((4H-1,2,4-triazol-3-yl)methoxy)-3-fluorophenyl)-3-methyl-2-oxo-6-(trifluoromethyl)-2,3-dihydro-1H-benzo[d]imidazol-1-yl)-N-(4-fluorophenyl)acetamide]",8.1
2,"Cn1c(=O)n(CC(=O)N(Cc2nnc[nH]2)c2ccc(F)cc2)c2cc(C(F)(F)F)cc(-c3ccc(OCc4nnc[nH]4)c(F)c3)c21 [SSTN-592, 2-(4-(4-((4H-1,2,4-triazol-3-yl)methoxy)-3-fluorophenyl)-3-methyl-2-oxo-6-(trifluoromethyl)-2,3-dihydro-1H-benzo[d]imidazol-1-yl)-N-((4H-1,2,4-triazol-3-yl)methyl)-N-(4-fluorophenyl)acetamide]",14.8
3,"COc1cc(-c2cc(C(F)(F)F)cc3c2n(C)c(=O)n3CC(=O)Nc2cccc(CN3CCOCC3)c2)cc(F)c1OCc1nnc[nH]1 [SSTN-575, 2-(4-(4-((4H-1,2,4-triazol-3-yl)methoxy)-3-fluoro-5-methoxyphenyl)-3-methyl-2-oxo-6-(trifluoromethyl)-2,3-dihydro-1H-benzo[d]imidazol-1-yl)-N-(3-(morpholinomethyl)phenyl)acetamide]",12.5
4,"COc1cc(-c2cc(F)cc3c2n(C)c(=O)n3CC(=O)N(C)c2ccc(F)cc2)cc(F)c1OCc1nnc[nH]1 [compound 425, 2-(4-(4-((4H-1,2,4-triazol-3-yl)methoxy)-3-fluoro-5-methoxyphenyl)-6-fluoro-3-methyl-2-oxo-2,3-dihydro-1H-benzo[d]imidazol-1-yl)-N-(4-fluorophenyl)-N-methylacetamide hydrochloride]",33.5
5,"Cn1c(=O)n(CC(=O)N(Cc2nnc[nH]2)c2ccc(F)cc2)c2cc(C(F)(F)F)cc(-c3cc(Cl)c(OCc4nnc[nH]4)c(Cl)c3)c21 [SSTN-594, 2-(4-(4-((4H-1,2,4-triazol-3-yl)methoxy)-3,5-dichlorophenyl)-3-methyl-2-oxo-6-(trifluoromethyl)-2,3-dihydro-1H-benzo[d]imidazol-1-yl)-N-((4H-1,2,4-triazol-3-yl)methyl)-N-(4-fluorophenyl)acetamide]",4.5
6,"Cn1c(=O)n(CC(=O)Nc2ccc(F)cc2)c2cc(C(F)(F)F)cc(-c3cc(Cl)c(OCc4nnc[nH]4)c(Cl)c3)c21 [SSTN-599, 2-(4-(4-((4H-1,2,4-triazol-3-yl)methoxy)-3,5-dichlorophenyl)-3-methyl-2-oxo-6-(trifluoromethyl)-2,3-dihydro-1H-benzo[d]imidazol-1-yl)-N-(4-fluorophenyl)acetamide]",13.9
7,"COc1cc(-c2cc(C(F)(F)F)cc3c2n(C)c(=O)n3CC(=O)Nc2ccn(C)n2)cc(F)c1OCc1nnc[nH]1 [SSTN-509, 2-(4-(4-((4H-1,2,4-triazol-3-yl)methoxy)-3-fluoro-5-methoxyphenyl)-3-methyl-2-oxo-6-(trifluoromethyl)-2,3-dihydro-1H-benzo[d]imidazol-1-yl)-N-(1-methyl-1H-pyrazol-3-yl)acetamide hydrochloride]",16.1
8,"COc1ccc(NC(=O)Cn2c(=O)n(C)c3c(-c4cc(F)c(OCc5nnc[nH]5)c(OC)c4)cc(C(F)(F)F)cc32)cn1 [SSTN-613, 2-(4-(4-((4H-1,2,4-triazol-3-yl)methoxy)-3-fluoro-5-methoxyphenyl)-3-methyl-2-oxo-6-(trifluoromethyl)-2,3-dihydro-1H-benzo[d]imidazol-1-yl)-N-(6-methoxypyridin-3-yl)acetamide]",9.2
9,"COc1cncc(NC(=O)Cn2c(=O)n(C)c3c(-c4cc(F)c(OCc5nnc[nH]5)c(OC)c4)cc(C(F)(F)F)cc32)c1 [SSTN-611, 2-(4-(4-((4H-1,2,4-triazol-3-yl)methoxy)-3-fluoro-5-methoxyphenyl)-3-methyl-2-oxo-6-(trifluoromethyl)-2,3-dihydro-1H-benzo[d]imidazol-1-yl)-N-(5-methoxypyridin-3-yl)acetamide]",20.9
